Like-named read-outs stand apart in the source and are kept apart here.
Key:
[1] = biological target: T1, F1F0-ATPase (Bos taurus, UniProt P13621); experiment: Inhibition of F1F0-ATPase activity in synthesizing ATP; type: biochemical; conditions: inhibition of ATP synthesis by F1F0-ATPase; read-out: ATP Syn IC50
T1 construct: from tissue

[2] = test system: Ramos cells; experiment: Cytotoxicity in Ramos cells; type: cell-based; conditions: read-out: Ramos Cell EC50
[3] = Homo sapiens, cytotoxicity in Ramos cells

| IC50 [1] [µM] | Structure (SMILES) | EC50 ([2]; cytotoxicity in Ramos cells) [µM] | EC50 [2, 3] [µM] | EC50 ([2]; Homo sapiens, Ramos) [µM] |
| --- | --- | --- | --- | --- |
| < 10 | COc1cccc(F)c1C(=O)/N=C(\Nc1cc(-c2ccc(F)cc2)n[nH]1)NC(C)(C)C [Compound A-387] | > 10 | – | – |
| < 10 | O=C(/N=C(\Nc1cc(-c2ccc(Cl)cc2)n[nH]1)NC1CCCC1)c1ccc(F)cc1 [Compound A-253] | < 10 | – | – |
| < 10 | CCC(C)N/C(=N/C(=O)c1ccc(Cl)c(F)c1)Nc1cc(C)n[nH]1 (stereo not shown) [Compound A-178] | – | < 10 | – |
| < 10 | CCOCCN/C(=N/C(=O)c1ccc(F)cc1)Nc1cc(C(F)(F)F)[nH]n1 [Compound A-410] | > 10 | – | – |
| < 10 | CCC(C)(C)N/C(=N/C(=O)c1ccc(C(F)F)cc1)Nc1cc(C(F)(F)F)[nH]n1 [Compound A-74] | – | < 10 | – |
| < 10 | COCC(C)(C)NC(=NC(=O)c1ccc(F)cc1)Nc1cc(-c2ccc(F)cc2)n[nH]1 [Compound A-505] | – | < 10 | – |
| > 10 | CC(C)CN/C(=N/C(=O)c1ccc(F)c(F)c1)Nc1[nH]nc(-c2ccc(Cl)cc2)c1F [Compound A-161] | > 10 | – | – |
| < 10 | CC(C)N/C(=N/C(=O)c1ccc(C(F)(F)F)cc1)Nc1cc(C(F)F)[nH]n1 [Compound A-58] | – | > 10 | – |
| < 10 | CCC(C)(C)N/C(=N/C(=O)c1ccc(Cl)c(F)c1)Nc1cc(C(F)(F)F)n[nH]1 [Compound A-116] | – | < 10 | – |
| < 10 | CC(C)N/C(=N/C(=O)c1ccc(F)cc1)Nc1cc(-c2cc(F)cc(F)c2)n[nH]1 [Compound A-245] | < 10 | – | – |
| < 10 | COCCOCC(C)(C)N/C(=N/C(=O)c1cccc(C#N)c1)Nc1cc(-c2ccc(F)cc2)n[nH]1 [Compound A-506] | < 10 | – | – |
| < 10 | COc1ccc(C(=O)/N=C(\Nc2cc(-c3ccc(F)cc3)n[nH]2)NC(C)C)c(F)c1 [Compound A-374] | < 10 | – | – |
| < 10 | O=C(/N=C(\Nc1cc(-c2ccc(Cl)cc2)n[nH]1)NC1CCC1)c1ccc(F)cc1 [Compound A-251] | < 10 | – | – |
| < 10 | Cc1ccc(-c2cc(NC(=NC(=O)c3ccc(Cl)c(F)c3)NC(C)(C)C)[nH]n2)cc1 [Compound A-470] | – | > 10 | – |
| > 10 | O=C(/N=C(\Nc1cc(-c2ccccc2)[nH]n1)NC1CCOCC1)c1ccc(Cl)c(F)c1 [Compound A-140] | > 10 | – | – |
| < 10 | Cc1cc(C(=O)/N=C(\Nc2cc(C(F)(F)F)[nH]n2)NC(C)(C)C)ccn1 [Compound A-84] | – | > 10 | – |
| < 10 | COc1ccc(C(=O)N=C(Nc2cc(-c3ccc(F)cc3)n[nH]2)NC2CCCC2)cc1 [Compound A-518] | – | < 10 | – |
| < 10 | O=C(/N=C(\Nc1cc(-c2ccc(Cl)cc2)n[nH]1)NC1CCC1)c1ccc(C(F)(F)F)cc1 [Compound A-236] | < 10 | – | – |
| < 10 | CCOCC(C)NC(=NC(=O)c1ccc(C(F)(F)F)cc1)Nc1cc(-c2ccc(Cl)cc2)n[nH]1 (stereo not shown) [Compound A-237] | < 10 | – | – |
| < 10 | C[C@H](N/C(=N/C(=O)c1ccc(F)c(F)c1)Nc1cc(C(F)(F)F)[nH]n1)c1ccc(Cl)cc1 [Compound A-47] | – | < 10 | – |
| < 10 | CCC(C)N/C(=N/C(=O)c1cccc(OC)c1)Nc1cc(-c2ccc(F)cc2)n[nH]1 (stereo not shown) [Compound A-172] | – | < 10 | – |
| < 10 | CCCC(C)NC(=NC(=O)c1ccc(Cl)c(F)c1)Nc1cc(-c2cc(F)cc(F)c2)n[nH]1 (stereo not shown) [Compound A-348] | – | < 10 | – |
| < 10 | CCOCC(C)NC(=NC(=O)c1ccc(F)cc1)Nc1cc(-c2ccc(Cl)cc2)n[nH]1 (stereo not shown) [Compound A-252] | – | < 10 | – |

Second part, the compound before the results:

| Structure (SMILES) | IC50 [1] [µM] | EC50 ([2]; cytotoxicity in Ramos cells) [µM] | EC50 [2, 3] [µM] | EC50 ([2]; Homo sapiens, Ramos) [µM] |
| --- | --- | --- | --- | --- |
| Cc1ccc(-c2cc(N/C(=N\C(=O)c3ccc(F)c(F)c3)NC(C)(C)C)[nH]n2)cc1 [Compound A-427] | < 10 | < 10 | – | – |
| CCC(C)N/C(=N/C(=O)c1cccc(S(C)(=O)=O)c1)Nc1cc(-c2ccc(F)cc2)n[nH]1 (stereo not shown) [Compound A-430] | < 10 | < 10 | – | – |
| CC(N/C(=N/C(=O)c1ccc(C(F)(F)F)cc1)Nc1cc(C(F)(F)F)[nH]n1)c1ccc(Cl)cc1 (stereo not shown) [Compound A-23] | < 10 | – | < 10 | – |
| COCC(C)N/C(=N/C(=O)c1ccc(Cl)cc1)Nc1cc(C(F)(F)F)n[nH]1 (stereo not shown) [Compound A-111] | < 10 | – | < 10 | – |
| COc1ccc(C(=O)/N=C(/NCC(C)C)Nc2cc(-c3ccc(F)cc3)n[nH]2)c(F)c1 [Compound A-372] | < 10 | > 10 | – | – |
| N#Cc1cccc(C(=O)/N=C(/NCc2ccc(F)cc2Cl)Nc2cc(C(F)(F)F)[nH]n2)c1 [Compound A-82] | < 10 | – | – | < 10 |
| CC(C)(C)N/C(=N/C(=O)c1cccnc1C(F)(F)F)Nc1cc(-c2ccc(F)cc2)[nH]n1 [Compound A-167] | < 10 | < 10 | – | – |
| O=C(/N=C(/Nc1cc(F)cc(Cl)c1)Nc1cc(-c2cccs2)[nH]n1)c1ccc(Cl)c(F)c1 [Compound A-144] | < 10 | < 10 | – | – |
| CCCCN/C(=N/C(=O)c1ccc(Cl)c(F)c1)Nc1cc(-c2cc(F)cc(F)c2)n[nH]1 [Compound A-360] | < 10 | < 10 | – | – |
| O=C(/N=C(\Nc1cc(C(F)(F)F)n[nH]1)NC1CCOCC1)c1ccc(C(F)(F)F)cc1 [Compound A-95] | < 10 | – | < 10 | – |
| CCC(C)CN/C(=N/C(=O)c1ccc(F)c(F)c1)Nc1cc(-c2ccc(C)c(F)c2)n[nH]1 (stereo not shown) [Compound A-321] | < 10 | < 10 | – | – |
| CC(C)(C)N/C(=N/C(=O)c1cccc(C#N)c1)Nc1cc(-c2cc(F)cc(F)c2)n[nH]1 [Compound A-315] | < 10 | > 10 | – | – |
| CCOCC(C)NC(=NC(=O)c1ccc(Cl)c(F)c1)Nc1cc(-c2ccc(F)cc2)n[nH]1 (stereo not shown) [Compound A-217] | < 10 | – | < 10 | – |
| COc1ccc(-c2cc(N/C(=N\C(=O)c3ccc(Cl)c(F)c3)NC(C)(C)C)[nH]n2)cc1 [Compound A-467] | < 10 | < 10 | – | – |
| COCC(C)NC(=NC(=O)c1ccc(F)c(F)c1)Nc1cc(-c2cc(F)cc(Cl)c2)n[nH]1 (stereo not shown) [Compound A-246] | < 10 | – | < 10 | – |
| CC(C)N/C(=N/C(=O)c1ccc(F)c(F)c1)Nc1cc(-c2cc(F)cc(F)c2)n[nH]1 [Compound A-366] | < 10 | < 10 | – | – |
| Cc1cc(C(=O)/N=C(\Nc2cc(-c3ccc(F)cc3)[nH]n2)N[C@@H](C)CO)ccc1F [Compound A-405] | < 10 | < 10 | – | – |
| CCC(C)N/C(=N/C(=O)c1ccc(C(F)(F)F)cc1)Nc1cc(-c2ccc(C)c(F)c2)n[nH]1 (stereo not shown) [Compound A-334] | < 10 | < 10 | – | – |

| Structure (SMILES) | IC50 [1] [µM] | EC50 ([2]; cytotoxicity in Ramos cells) [µM] | EC50 [2, 3] [µM] | EC50 ([2]; Homo sapiens, Ramos) [µM] |
| --- | --- | --- | --- | --- |
| Cc1ccc(C(=O)/N=C(\Nc2cc(C(F)(F)F)[nH]n2)NC2CCCC2)cc1F [Compound A-546] | < 10 | < 10 | – | – |
| COCC(C)NC(=NC(=O)c1cccc(F)c1)Nc1cc(-c2cc(F)cc(F)c2)n[nH]1 (stereo not shown) [Compound A-367] | < 10 | < 10 | – | – |
| O=C(/N=C(/NCC(O)CO)Nc1cc(C(F)(F)F)n[nH]1)c1ccc(F)cc1 (stereo not shown) [Compound A-562, (Z)—N-(((2,3-Dihydroxypropyl)amino)((3-(trifluoromethyl)-1H-pyrazol-5-yl)amino)methylene)-4-fluorobenzamide] | > 10 | – | > 10 | – |
| Cc1ccc(-c2cc(N/C(=N\C(=O)c3ccc(F)c(F)c3)NC3CCCC3)[nH]n2)cc1F [Compound A-316] | < 10 | < 10 | – | – |
| COCC(C)NC(=NC(=O)c1ccc(S(C)(=O)=O)cc1)Nc1cc(-c2ccc(F)cc2)n[nH]1 (stereo not shown) [Compound A-497] | < 10 | – | < 10 | – |
| COc1ccc(-c2cc(N/C(=N\C(=O)c3ccc(Cl)c(F)c3)Nc3cc(F)cc(Cl)c3)n[nH]2)cc1 [Compound A-148] | > 10 | > 10 | – | – |
| COc1ccccc1CN/C(=N/C(=O)c1ccc(C(F)(F)F)cc1)Nc1cc(C(F)(F)F)[nH]n1 [Compound A-424] | < 10 | < 10 | – | – |
| CC(C)(C)N/C(=N/C(=O)c1ccc(F)c(F)c1)Nc1cc(C(F)F)[nH]n1 [Compound A-62] | < 10 | – | < 10 | – |
| COCC(C)N/C(=N/C(=O)c1ccc(F)c(F)c1)Nc1cc(C(F)(F)F)n[nH]1 (stereo not shown) [Compound A-106] | < 10 | – | < 10 | – |
| CC(C)(C)N/C(=N/C(=O)c1cccc(C(F)(F)F)c1)Nc1cc(-c2ccc(Cl)cc2)n[nH]1 [Compound A-437] | < 10 | < 10 | – | – |
| O=C(/N=C(/NCC1CCCCO1)Nc1cc(-c2ccc(F)cc2)n[nH]1)c1ccc(F)cc1 (stereo not shown) [Compound A-208] | > 10 | > 10 | – | – |
| CC(C)(C)N/C(=N/C(=O)c1ccc(F)c(F)c1)Nc1cc(C(F)(F)F)n[nH]1 [Compound A-12] | < 10 | – | < 10 | – |
| CC(C)(C)N/C(=N/C(=O)c1ccc(C(F)(F)F)cc1)Nc1cc(C(=O)O)n[nH]1 [Compound A-565, (Z)-5-(3-(tert-Butyl)-2-(4-(trifluoromethyl)benzoyl)guanidino)-1H-pyrazole-3-carboxylic acid] | > 10 | – | > 10 | – |
| COc1ccc(-c2cc(N/C(=N\C(=O)c3ccc(C(F)(F)F)cc3)NCC(C)(C)C)[nH]n2)cc1F [Compound A-573] | < 10 | > 10 | – | – |
| O=C(/N=C(/NCc1ccc(F)cc1Cl)Nc1cc(-c2cccc(Cl)c2)n[nH]1)c1ccc(C(F)(F)F)cc1 [Compound A-444] | < 10 | > 10 | – | – |
| O=C(/N=C(/NCc1ccc(Cl)cc1F)Nc1cc(C(F)(F)F)[nH]n1)c1ccc(F)c(F)c1 [Compound A-27] | < 10 | – | < 10 | – |
| CC(C)N/C(=N/C(=O)c1cccc(C#N)c1)Nc1cc(-c2cc(F)cc(F)c2)n[nH]1 [Compound A-312] | < 10 | < 10 | – | – |
| CCOCCCN/C(=N/C(=O)c1cccc(F)c1)Nc1cc(-c2ccc(F)cc2)n[nH]1 [Compound A-279] | < 10 | < 10 | – | – |

Reference: US9139532B2, “Pyrazolyl guanidine F1F0-atpase inhibitors and therapeutic uses thereof” (Lycera Corporation, priority 2010, dated 2015)
